Laboratory results as given in ChEMBL document CHEMBL5113395, “Azetidin-2-one-based small molecules as dual hHDAC6/HDAC8 inhibitors: Investigation of their mechanism of action and impact of dual inhibition profile on cell viability” (Eur J Med Chem, 2022).

Columns and labels:
Format in all cases: toxicity, tissue-based
[1] = Cardiotoxicity in Langendorff-perfused Wistar rat heart assessed as effect on RR time at 10 uM by ECG analysis (reference value: 239.5+/-9.2 milliseconds)
[2] = Cardiotoxicity in Langendorff-perfused Wistar rat heart assessed as effect on QRS interval time at 0.1 uM by ECG analysis (reference value: 13.3+/-0.6 milliseconds)
[3] = Cardiotoxicity in Langendorff-perfused Wistar rat heart assessed as effect on QRS interval time at 10 uM by ECG analysis (reference value: 13.3+/-0.6 milliseconds)
[4] = Cardiotoxicity in Langendorff-perfused Wistar rat heart assessed as effect on HR at 0.1 uM by ECG analysis (reference value: 252.3 +/-10.1 bpm)
[5] = Cardiotoxicity in Langendorff-perfused Wistar rat heart assessed as effect on HR at 10 uM by ECG analysis (reference value: 252.3 +/-10.1 bpm)
[6] = Cardiotoxicity in Langendorff-perfused Wistar rat heart assessed as effect on QRS interval time at 1 uM by ECG analysis (reference value: 13.3+/-0.6 milliseconds)
[7] = Cardiotoxicity in Langendorff-perfused Wistar rat heart assessed as effect on HR at 1 uM by ECG analysis (reference value: 252.3 +/-10.1 bpm)
[8] = Cardiotoxicity in Langendorff-perfused Wistar rat heart assessed as effect on PQ interval time at 0.1 uM by ECG analysis (reference value: 45.4+/-3.9 milliseconds)
[9] = Cardiotoxicity in Langendorff-perfused Wistar rat heart assessed as effect on PQ interval time at 10 uM by ECG analysis (reference value: 45.4+/-3.9 milliseconds)
[10] = Cardiotoxicity in Langendorff-perfused Wistar rat heart assessed as effect on QT interval time at 0.1 uM by ECG analysis (reference value: 66.1+/-1.1 milliseconds)
[11] = Cardiotoxicity in Langendorff-perfused Wistar rat heart assessed as effect on PQ interval time at 1 uM by ECG analysis (reference value: 45.4+/-3.9 milliseconds)

**Q.** Which results are given for `O=C(NO)c1ccc(CNC(=O)N2CCC(N3CC(c4ccccc4)(c4ccccc4)C3=O)CC2)cc1`?
**A.** Time [1]: 241.5 ms; Time [2]: 13.1 ms; Time [3]: 13.9 ms; Activity [4]: 258.4 bpm; Activity [5]: 248.4 bpm; Time [6]: 13.9 ms; Activity [7]: 252 bpm; Time [8]: 44.9 ms; Time [9]: 47.5 ms; Time [10]: 66.1 ms; Time [11]: 46.2 ms
